The record followed here is ChEMBL document CHEMBL3392977, “Synthesis and biological evaluation of adamantane-based aminophenols as a novel class of antiplasmodial agents” (Bioorg Med Chem Lett, 2015).

A word on the IC50: it is the concentration that gives 50% inhibition. Low readings indicate higher potency, high ones lower potency. Broadly, the logD is lipophilicity at a set pH, counting ionised and neutral species. Usually fraction unbound stands for free concentration divided by total concentration. What is called solubility is the dissolved amount per volume that the medium holds. A high value points to a readily soluble substance. A word on the inhibition: it is how much of the control response was suppressed. A higher inhibition goes with strong suppression.

Each structure is given as a SMILES string. In brackets after ≈: the same amount, converted by molar mass.

The test system of series [1] is Plasmodium falciparum. Description: Antiplasmodial activity against Plasmodium falciparum NF54 by SYBR Green-based method. It counts as functional, organism-based.
For series [2], the system named is Plasmodium falciparum. As to the kind of experiment: Antiplasmodial activity against multidrug-resistant Plasmodium falciparum K1 by SYBR Green-based method. It counts as functional, organism-based.
The next series deals with Liver microsome. Description: Clearance in human liver microsomes at 1 uM after 2 to 30 mins by LC-MS/MS analysis. It counts as ADME. Background: Liver microsomes are a subcellular fraction often used to study metabolism.
A short description of series [3]: Octanol-water partition coefficient, log D by shake-flask method. It counts as physicochemical.
The nature of series [4]: Selectivity index, ratio of IC50 for human A549 cells to IC50 for Plasmodium falciparum. The series is classed as toxicity, cell-based. The note with it: read-out: Ratio IC50.
Series [5] in a line: Protein binding in human plasma. It counts as ADME, cell-free.
Series [6] can be described thus: Solubility of the compound […]. It counts as physicochemical.
Another series deals with THP-1. As to the kind of experiment: Cytotoxicity against human THP1 cells. It counts as cell-based.
A further series deals with hERG (KCNH2) (Homo sapiens, UniProt Q12809). As to the kind of experiment: Inhibition of human ERG at 11.1 uM.
The nature of series [7]: Clearance in rat hepatocytes assessed per million cells at 1 uM after 5 to 120 mins by LC-MS/MS analysis. The series is classed as ADME, cell-based, Hepatocyte. The note with it: read-out: CLH.

hERG (KCNH2), sequence (Q12809 whole entry): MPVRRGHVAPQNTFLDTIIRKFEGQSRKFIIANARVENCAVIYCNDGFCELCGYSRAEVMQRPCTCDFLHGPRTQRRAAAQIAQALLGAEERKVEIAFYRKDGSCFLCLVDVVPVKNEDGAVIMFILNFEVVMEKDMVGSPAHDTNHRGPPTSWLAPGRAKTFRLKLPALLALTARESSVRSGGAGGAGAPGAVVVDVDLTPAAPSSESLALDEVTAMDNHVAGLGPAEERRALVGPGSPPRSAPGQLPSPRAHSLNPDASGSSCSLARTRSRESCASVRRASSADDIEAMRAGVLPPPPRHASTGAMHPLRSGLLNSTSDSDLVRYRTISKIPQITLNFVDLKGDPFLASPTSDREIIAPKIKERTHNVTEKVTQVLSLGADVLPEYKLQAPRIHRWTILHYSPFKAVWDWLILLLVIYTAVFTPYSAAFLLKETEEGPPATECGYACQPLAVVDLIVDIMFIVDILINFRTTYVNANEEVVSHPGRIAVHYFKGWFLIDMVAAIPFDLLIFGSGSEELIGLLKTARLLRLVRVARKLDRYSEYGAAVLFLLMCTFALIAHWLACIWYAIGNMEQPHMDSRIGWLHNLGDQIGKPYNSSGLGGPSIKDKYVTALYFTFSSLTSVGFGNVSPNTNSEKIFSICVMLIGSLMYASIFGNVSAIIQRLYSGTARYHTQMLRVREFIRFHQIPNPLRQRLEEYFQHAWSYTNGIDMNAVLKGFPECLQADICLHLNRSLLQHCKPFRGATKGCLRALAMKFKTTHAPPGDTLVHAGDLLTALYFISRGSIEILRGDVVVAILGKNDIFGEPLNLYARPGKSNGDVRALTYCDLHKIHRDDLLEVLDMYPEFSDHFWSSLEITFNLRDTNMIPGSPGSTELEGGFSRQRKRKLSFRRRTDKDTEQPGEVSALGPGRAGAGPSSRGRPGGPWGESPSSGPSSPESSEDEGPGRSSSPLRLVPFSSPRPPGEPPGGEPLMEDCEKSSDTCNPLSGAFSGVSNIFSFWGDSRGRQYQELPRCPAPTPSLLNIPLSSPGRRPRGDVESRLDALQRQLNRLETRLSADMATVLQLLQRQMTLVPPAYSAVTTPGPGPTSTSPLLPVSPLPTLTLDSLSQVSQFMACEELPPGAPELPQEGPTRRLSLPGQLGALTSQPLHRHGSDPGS

`Oc1ccccc1CNCC12CC3CC(CC(C3)C1)C2`: the values for the concentration for half-maximal inhibition (IC50) in the series on Plasmodium falciparum [1] and in the series on Plasmodium falciparum [2] were 72 nM and 10 nM, respectively.

In turn, `Oc1c(F)cc(Br)cc1CNCC12CC3CC(CC(C3)C1)C2` displayed a CLH in the series on Liver microsome of 92 µL/min. In series [3], this compound gave a pH-dependent lipophilicity (logD) of 3.7. For the same compound, the selectivity ratio in series [4] is > 3330. In [5], this compound returned a fraction unbound of 0.005. Further, the IC50 is 14 nM with Plasmodium falciparum [1] and < 4 nM in the series on Plasmodium falciparum [2]. The compound further had a solubility in [6] of 4 µM (≈ 1.47 µg/mL). The Activity entry with THP-1 is “Non-toxic”. Moreover, on hERG (KCNH2), the inhibition at 11.1 µM was 9.2%. Also, in [7], the hepatocyte CLint at 1 µM came to 162 µL/min/1e6 cells.

Turning to `CCNCc1ccc(C)cc1O`, the 50% inhibitory concentration (IC50) in the series on Plasmodium falciparum [1] and in the series with Plasmodium falciparum [2] was > 2000 nM each time.

With `Cc1ccc(O)c(CNCC23CC4CC(CC(C4)C2)C3)n1`, the CLH with Liver microsome is 13 µL/min. This compound returned a logD in [3] of 3. In series [4], the selectivity ratio is > 1560. This compound showed a fraction unbound in [5] of 0.122. The IC50 in the series with Plasmodium falciparum [1] is 32 nM; in the series on Plasmodium falciparum [2], 7.7 nM. In series [6], this compound displayed a solubility of 237 µM (≈ 67.9 µg/mL). Also, the Activity result in the series on THP-1 is “Non-toxic”. The compound further came in with an inhibition at 11.1 µM against hERG (KCNH2) of 7.9%. Further, the hepatocyte CLint at 1 µM in series [7] is 49 µL/min/1e6 cells.

`CN(Cc1ccccc1O)CC12CC3CC(CC(C3)C1)C2`: the IC50 was > 500 nM with Plasmodium falciparum [1] and 270 nM in the series on Plasmodium falciparum [2].

Regarding `C[C@@H]1CC[C@H]2[C@@H](C)C(=O)O[C@@H]3O[C@@]4(C)CC[C@@H]1[C@]32OO4` [ARTEMISININ], in the series on Plasmodium falciparum [1], the half-maximal inhibitory concentration (IC50) came out at 7 nM.

For the compound `O=C(NCC12CC3CC(CC(C3)C1)C2)c1ccccc1O`, the IC50 is > 500 nM with Plasmodium falciparum [1] and 410 nM in the series on Plasmodium falciparum [2].

Consider `c1ccc(CNCC23CC4CC(CC(C4)C2)C3)cc1`, for which the IC50 in the series on Plasmodium falciparum [1] and in the series on Plasmodium falciparum [2] was > 2000 nM throughout.

Compound `Oc1ccc(Cl)cc1CNCC12CC3CC(CC(C3)C1)C2` gave a CLH in the series on Liver microsome of 80 µL/min. The pH-dependent lipophilicity (logD) in [3] was found to be 4. In addition, in series [4], the selectivity ratio worked out at 5290. Besides, in [5], the fraction unbound is 0.004. The IC50 in the series on Plasmodium falciparum [1] was 5 nM; with Plasmodium falciparum [2], < 4 nM. In [6], this compound yielded a solubility of 43 µM (≈ 13.2 µg/mL). In addition, the Activity result in the series with THP-1 is recorded as “Non-toxic”. Further, the inhibition at 11.1 µM on hERG (KCNH2) amounted to 26.8%. Moreover, in [7], the hepatocyte CLint at 1 µM worked out at 208 µL/min/1e6 cells.

As to `Oc1cccc(F)c1CNCC12CC3CC(CC(C3)C1)C2`, the results for the IC50 in the series on Plasmodium falciparum [1] and in the series with Plasmodium falciparum [2] were 28 nM and 8 nM, respectively.

On to `Cc1ccc(CNC2C3CC4CC(C3)CC2C4)c(O)c1` (stereo not drawn), for which the IC50 in the series with Plasmodium falciparum [1] was 43 nM; with Plasmodium falciparum [2], 15 nM.

`Oc1ccc(C(F)(F)F)cc1CNCC12CC3CC(CC(C3)C1)C2`: the selectivity ratio in [4] was > 500. Further, the IC50 amounted to 100 nM with Plasmodium falciparum [1] and 12 nM with Plasmodium falciparum [2]. For the same compound, in the series on THP-1, the Activity entry is given as “Non-toxic”.

With `Cc1ccc(CNCC2CC2)c(O)c1`, the IC50 in the series on Plasmodium falciparum [1] is 1400 nM; in the series on Plasmodium falciparum [2], 520 nM.

For the compound `Oc1ccc(Br)cc1CNCC12CC3CC(CC(C3)C1)C2`, in series [4], the selectivity ratio was 4780. Moreover, the IC50 in the series with Plasmodium falciparum [1] was 7 nM; with Plasmodium falciparum [2], < 4 nM. Further, the Activity result with THP-1 is given as “Non-toxic”.

In turn, `COc1ccc(CNCC23CC4CC(CC(C4)C2)C3)c(O)c1` displayed a CLH in the series with Liver microsome of 59 µL/min. The compound also returned a logD in [3] of 2.7. Besides, in [5], the fraction unbound came to 0.044. The IC50 in the series with Plasmodium falciparum [1] worked out at 22 nM; in the series on Plasmodium falciparum [2], 6 nM. This compound also had a solubility in series [6] of 446 µM (≈ 134 µg/mL). In addition, the inhibition at 11.1 µM against hERG (KCNH2) was 46.2%. Besides, the hepatocyte CLint at 1 µM in series [7] amounted to 391 µL/min/1e6 cells.

For the compound `COc1cccc(F)c1CNCC12CC3CC(CC(C3)C1)C2`, the IC50 is > 2000 nM with Plasmodium falciparum [1] and 1100 nM in the series on Plasmodium falciparum [2].

With `CC(NCC12CC3CC(CC(C3)C1)C2)c1cc(Br)ccc1O` (stereo not drawn), the selectivity ratio in series [4] is > 1220. Moreover, the IC50 is 41 nM in the series with Plasmodium falciparum [1] and 12 nM in the series with Plasmodium falciparum [2]. Besides, in the series on THP-1, the Activity result is “Non-toxic”.

Take `Cc1ccc(CNC2CCCCC2)c(O)c1`: the IC50 in the series with Plasmodium falciparum [1] was 730 nM; in the series on Plasmodium falciparum [2], 130 nM.

For `Cc1ccc(O)c(CNCC23CC4CC(CC(C4)C2)C3)c1`, the CLH with Liver microsome was determined as 93 µL/min. In series [3], the logD amounted to 3.3. In series [4], the selectivity ratio is > 1160. This compound also gave a fraction unbound in [5] of 0.031. Also, the IC50 in the series on Plasmodium falciparum [1] stood at 43 nM; with Plasmodium falciparum [2], 15 nM. Moreover, the solubility in [6] was found to be 97 µM (≈ 27.7 µg/mL). In addition, in the series on THP-1, the Activity result is reported as “Non-toxic”. In addition, at hERG (KCNH2), the inhibition at 11.1 µM came to 28.3%. Besides, the hepatocyte CLint at 1 µM in series [7] came to 134 µL/min/1e6 cells.

For the compound `Cc1ccc(CNCC23CC4CC(CC(C4)C2)C3)c(O)c1`, the IC50 in the series on Plasmodium falciparum [1] is 6 nM; in the series on Plasmodium falciparum [2], < 4 nM.

In the series with Plasmodium falciparum [2], `O=C1C(O)=C([C@H]2CC[C@H](c3ccc(Cl)cc3)CC2)C(=O)c2ccccc21` [ATOVAQUONE] returned an IC50 of 2.3 nM.

For the compound `Oc1cc(Cl)cc(Cl)c1CNCC12CC3CC(CC(C3)C1)C2`, the selectivity ratio in series [4] was > 6250. Also, the results for the IC50 in the series with Plasmodium falciparum [1] and with Plasmodium falciparum [2] were 8 nM and < 4 nM, respectively. For the same compound, in the series with THP-1, the Activity result is reported as “Non-toxic”.
